Like-named read-outs stand apart in the source and are kept apart here.
System: NL-RLuc virus (recombinant NL4-3 proviral clone with Renilla Luciferase gene)
Assay: Inhibition of HIV replication (NL-RLuc reporter virus in MT-2 cells)
Format: cell-based
From the text: Inhibition of HIV replication: A recombinant NL-RLuc proviral clone was constructed in which a section of the nef gene from NL4-3 was replaced with the Renilla Luciferase gene. This virus is fully infectious and can undergo multiple cycles of replication in cell culture. In addition, the luciferous reporter provides a simple and easy method for quantitating the extent of virus growth and consequently, the antiviral activity of test compounds. The plasmid pNLRLuc contains the proviral NL-Rluc DNA cloned into pUC18 at the PvuII site. The NL-RLuc virus was prepared by transfection of 293T cells with the plasmid pNLRLuc. Transfections were performed using the LipofectAMINE PLUS kit from Invitrogen (Carlsbad, Calif.) according to the manufacturer and the virus generated was titered in MT-2 cells. For susceptibility analyses, the titrated virus was used to infect MT-2 cells in the presence of compound, and after 5 days of incubation, cells were processed and quantitated for virus growth by the amount of expressed luciferase. Assay media was RPMI 1640 supplemented with 10% heat inactivated fetal bovine serum (FBS), 100 units/ml penicillin G/100 units/ml streptomycin, 10 mM HEPES buffer pH 7.55 and 2 mM L-glutamine. The results from at least 2 experiments were used to calculate the EC50 values. Luciferase was quantitated using the Dual Luciferase kit from Promega (Madison, Wis.). Susceptibility of viruses to compounds was determined by incubation in the presence of serial dilutions of the compound. The 50% effective concentration (EC50) was calculated by using the exponential form of the median effect equation where (Fa)=1/[1+(ED50/drug conc.)^m] (Johnson V A, Byington R T. Infectivity Assay. In Techniques in HIV Research. ed. Aldovini A, Walker B D. 71-76. New York: Stockton Press.1990). Activity equal to A refers to a compound having an EC50≤100 nM, while B and C denote compounds having an EC50 between 100 nM and 1 uM (B) or >1 uM (C).

[1] = Renilla, NL43, 120 h, read-out: Activity
[2] = Renilla, NL43, 120 h, read-out: EC50 μM

Compound | EC50 [1] | EC50 [2] | EC50 (MT-2 cells infected with NL-RLuc virus, 5 days of incubation, luciferase readout, read-out: Activity)
Cc1nc(C)c([C@H](OC(C)(C)C)C(=O)O)c(N2CCC(C)(C)CC2)c1-c1ccc(C(=O)NCc2c(F)cc(F)cc2F)cc1 [Example 69, (S)-2-(tert-Butoxy)-2-(4-(4,4-dimethylpiperidin-1-yl)-2,6-dimethyl-5-(4-((2,4,6-trifluorobenzyl)carbamoyl)phenyl)pyridin-3-yl)acetic acid] | < 0.1 µM | 0.004 µM | 
Cc1cc(CNC(=O)c2ccc(-c3c(C)nc(C)c([C@H](OC(C)(C)C)C(=O)O)c3N3CCC(C)(C)CC3)cc2)ccc1F [Example 1, (S)-2-(tert-Butoxy)-2-(4-(4,4-dimethylpiperidin-1-yl)-5-(4-((4-fluoro-3-methylbenzyl)carbamoyl)phenyl)-2,6-dimethylpyridin-3-yl)acetic acid] | < 0.1 µM | 0.007 µM | 
CC(C)=C1CCN(c2c(-c3ccc(C(=O)NCc4ccccc4)cc3)c(C)nc(C)c2[C@H](OC(C)(C)C)C(=O)O)CC1 [Example 63, (S)-2-(5-(4-(Benzylcarbamoyl)phenyl)-2,6-dimethyl-4-(4-(propan-2-ylidene)piperidin-1-yl)pyridin-3-yl)-2-(tert-butoxy)acetic acid] | 0.1 to 1 µM |  | 
COC1(C)CCN(c2c(-c3ccc(C(=O)NCc4ccccc4)cc3)c(C)nc(C)c2[C@H](OC(C)(C)C)C(=O)O)CC1 [Example 60, (S)-2-(5-(4-(Benzylcarbamoyl)phenyl)-4-(4-methoxy-4-methylpiperidin-1-yl)-2,6-dimethylpyridin-3-yl)-2-(tert-butoxy)acetic acid] | < 0.1 µM |  | 
Cc1nc(C)c([C@H](OC(C)(C)C)C(=O)O)c(N2CC(C)(C)C2)c1-c1ccc(C(=O)NCc2ccccc2)cc1 [Example 57, (S)-2-(5-(4-(Benzylcarbamoyl)phenyl)-4-(3,3-dimethylazetidin-1-yl)-2,6-dimethylpyridin-3-yl)-2-(tert-butoxy)acetic acid] | > 1 µM | 2.54 µM | 
Cc1nc(C)c([C@H](OC(C)(C)C)C(=O)O)c(N2CCC(C)(C)CC2)c1-c1ccc(N(C)CCc2ccc(F)cc2)cc1 [Example 76, (S)-2-(tert-Butoxy)-2-(4-(4,4-dimethylpiperidin-1-yl)-5-(4-((4-fluorophenethyl)(methyl)amino)phenyl)-2,6-dimethylpyridin-3-yl)acetic acid] | < 0.1 µM |  | 
Cc1nc(C)c([C@H](OC(C)(C)C)C(=O)O)c(N2CCC(C)(C)CC2)c1-c1ccc(C(=O)NCc2ccccc2)cc1 [Example 24, (S)-2-(5-(4-(Benzylcarbamoyl)phenyl)-4-(4,4-dimethylpiperidin-1-yl)-2,6-dimethylpyridin-3-yl)-2-(tert-butoxy)acetic acid] | < 0.1 µM |  | 
Cc1nc(C)c([C@H](OC(C)(C)C)C(=O)O)c(N2CCC(C)(C)CC2)c1-c1cc(F)c(CO)c(F)c1 [Example 34, (S)-2-(tert-Butoxy)-2-(5-(3,5-difluoro-4-(hydroxymethyl)phenyl)-4-(4,4-dimethylpiperidin-1-yl)-2,6-dimethylpyridin-3-yl)acetic acid] | < 0.1 µM |  | 
Cc1nc(C)c([C@H](OC(C)(C)C)C(=O)O)c(N2CCC(C)(C)CC2)c1-c1ccc(-c2cccc3ccccc23)cc1 [Example 18, (S)-2-(tert-Butoxy)-2-(4-(4,4-dimethylpiperidin-1-yl)-2,6-dimethyl-5-(4-(naphthalen-1-yl)phenyl)pyridin-3-yl)acetic acid] | < 0.1 µM |  | 
(S)-2-(tert-Butoxy)-2-(4-(4,4-dimethylpiperidin-1-yl)-5-(3-(1-(4-fluorobenzyl)-1H-tetrazol-5-yl)phenyl)-2,6-dimethylpyridin-3-yl)acetic acid and/or (S)-2-(tert-Butoxy)-2-(4-(4,4-dimethylpiperidin-1-yl)-5-(3-(2-(4-fluorobenzyl)-2H-tetrazol-5-yl)phenyl)-2,6-dimethylpyridin-3-yl)acetic acid [Example 87] |  |  | < 0.1 µM
Cc1nc(C)c([C@H](OC(C)(C)C)C(=O)O)c(N2CCC(C)(F)CC2)c1-c1ccc(C(=O)NCc2ccccc2)cc1 [Example 65, (S)-2-(5-(4-(Benzylcarbamoyl)phenyl)-4-(4-fluoro-4-methylpiperidin-1-yl)-2,6-dimethylpyridin-3-yl)-2-(tert-butoxy)acetic acid] | < 0.1 µM |  | 
Cc1nc(C)c([C@H](OC(C)(C)C)C(=O)O)c(N2CCC(C)(C)CC2)c1-c1ccc(CO)cc1 [Example 82, (S)-2-(tert-Butoxy)-2-(4-(4,4-dimethylpiperidin-1-yl)-5-(4-(hydroxymethyl)phenyl)-2,6-dimethylpyridin-3-yl)acetic acid] | < 0.1 µM |  | 
Cc1nc(C)c([C@H](OC(C)(C)C)C(=O)O)c(N2CCC(C)(C)CC2)c1-c1ccc(C(=O)O)c(C(=O)NCc2ccccc2)c1 [Example 45, (S)-2-(benzylcarbamoyl)-4-(5-(tert-butoxy(carboxy)methyl)-4-(4,4-dimethylpiperidin-1-yl)-2,6-dimethylpyridin-3-yl)benzoic acid] | 0.1 to 1 µM |  | 
CC(=O)NNC(=O)c1ccc(-c2c(C)nc(C)c([C@H](OC(C)(C)C)C(=O)O)c2N2CCC(C)(C)CC2)cc1 [Example 37, (S)-2-(5-(4-(2-Acetylhydrazinecarbonyl)phenyl)-4-(4,4-dimethylpiperidin-1-yl)-2,6-dimethylpyridin-3-yl)-2-(tert-butoxy)acetic acid] | > 1 µM | 1.15 µM | 
Cc1nc(C)c([C@H](OC(C)(C)C)C(=O)O)c(N2CCC(C)(C)CC2)c1-c1ccc(C(=O)NCc2ccccn2)cc1 [Example 66, (S)-2-(tert-Butoxy)-2-(4-(4,4-dimethylpiperidin-1-yl)-2,6-dimethyl-5-(4-((pyridin-2-ylmethyl)carbamoyl)phenyl)pyridin-3-yl)acetic acid] | < 0.1 µM |  | 
Cc1nc(C)c([C@H](OC(C)(C)C)C(=O)O)c(N2CCC(C)(C)CC2)c1-c1ccc(CCc2ccc(F)cc2)cc1 [Example 85, (S)-2-(tert-Butoxy)-2-(4-(4,4-dimethylpiperidin-1-yl)-5-(4-(4-fluorophenethyl)-phenyl)-2,6-dimethylpyridin-3-yl)acetic acid] | < 0.1 µM |  | 
Cc1nc(C)c([C@H](OC(C)(C)C)C(=O)O)c(N2CCC(C)(C)CC2)c1-c1ccc(CCCc2ccc(F)cc2)cc1 [Example 52, (S)-2-(tert-Butoxy)-2-(4-(4,4-dimethylpiperidin-1-yl)-5-(4-(3-(4-fluorophenyl)propyl)phenyl)-2,6-dimethylpyridin-3-yl)acetic acid] | < 0.1 µM |  | 
Cc1nc(C)c([C@H](OC(C)(C)C)C(=O)O)c(N2CCC(C)(C)CC2)c1-c1cccc(-c2nnn[nH]2)c1 [Example 47, (S)-2-(5-(3-(1H-Tetrazol-5-yl)phenyl)-4-(4,4-dimethylpiperidin-1-yl)-2,6-dimethylpyridin-3-yl)-2-(tert-butoxy)acetic acid] | > 1 µM |  | 
Cc1nc(C)c([C@H](OC(C)(C)C)C(=O)O)c(N2CCC(C)(C)CC2)c1-c1ccc(F)c(F)c1 [Example 41, (S)-2-(tert-Butoxy)-2-(5-(3,4-difluorophenyl)-4-(4,4-dimethylpiperidin-1-yl)-2,6-dimethylpyridin-3-yl)acetic acid] | < 0.1 µM |  | 
Cc1nc(C)c([C@H](OC(C)(C)C)C(=O)O)c(N2CCC(C)(C)CC2)c1-c1ccc(-c2ncc(Cc3ccc(F)cc3)o2)cc1 [Example 4, (S)-2-(tert-Butoxy)-2-(4-(4,4-dimethylpiperidin-1-yl)-5-(4-(5-(4-fluorobenzyl)oxazol-2-yl)phenyl)-2,6-dimethylpyridin-3-yl)acetic acid] | < 0.1 µM |  | 
Cc1nc(C)c([C@H](OC(C)(C)C)C(=O)O)c(N2CCC(C3CC3)C2)c1-c1ccc(C(=O)NCc2ccccc2)cc1 (stereo partly drawn) [Example 55, (2S)-2-(5-(4-(Benzylcarbamoyl)phenyl)-4-(3-cyclopropylpyrrolidin-1-yl)-2,6-dimethylpyridin-3-yl)-2-(tert-butoxy)acetic acid] | < 0.1 µM | 0.053 µM | 
Cc1nc(C)c([C@H](OC(C)(C)C)C(=O)O)c(N2CCC(C)(C)CC2)c1-c1ccc(-c2ncc(Cc3ccc(F)cc3)s2)cc1 [Example 3, (S)-2-(tert-Butoxy)-2-(4-(4,4-dimethylpiperidin-1-yl)-5-(4-(5-(4-fluorobenzyl)thiazol-2-yl)phenyl)-2,6-dimethylpyridin-3-yl)acetic acid] | < 0.1 µM |  | 
Cc1nc(C)c([C@H](OC(C)(C)C)C(=O)O)c(N2CCC(C)(C)CC2)c1-c1ccc(CCCO)cc1 [Example 31, (S)-2-(tert-Butoxy)-2-(4-(4,4-dimethylpiperidin-1-yl)-5-(4-(3-hydroxypropyl)phenyl)-2,6-dimethylpyridin-3-yl)acetic acid] | < 0.1 µM |  | 
Cc1nc(C)c([C@H](OC(C)(C)C)C(=O)O)c(N2CCC(C)(C)CC2)c1-c1ccc(N(CCc2ccc(F)cc2)C(O)Cc2ccc(F)cc2)cc1 (stereo partly drawn) [Example 74, (2S)-2-(tert-Butoxy)-2-(4-(4,4-dimethylpiperidin-1-yl)-5-(4-((4-fluorophenethyl)(2-(4-fluorophenyl)-1-hydroxyethyl)amino)phenyl)-2,6-dimethylpyridin-3-yl)acetic acid] | < 0.1 µM |  | 
